Measured values published in patent publication US9532938B2, “Esters of O-substituted hydroxy carboxylic acids and preparations thereof” (Eastman Chemical Company, priority 2010, dated 2017).

Molecular target: T1, Novozym 435 (Candida antarctica lipase B immobilized on acrylic resin) (Moesziomyces antarcticus, UniProt P41365)
T1 construct: purchased
Assay: Enzymatic hydrolysis of oleyl glycolyl retinoate with Novozym 435
Type: in vitro ADME
Conditions: toluene / pH 7 phosphate buffer
Experimental: Oleyl glycolyl retinoate (50 mg; 0.082 mmol) was dissolved in 1 mL of toluene. pH 7 Phosphate buffer (1 mL) was added followed by Novozym 435 (50 mg). The mixture was stirred for 1 h at ambient temperature to afford 5% hydrolysis according to HPLC analysis.

T1 sequence (P41365 26-342): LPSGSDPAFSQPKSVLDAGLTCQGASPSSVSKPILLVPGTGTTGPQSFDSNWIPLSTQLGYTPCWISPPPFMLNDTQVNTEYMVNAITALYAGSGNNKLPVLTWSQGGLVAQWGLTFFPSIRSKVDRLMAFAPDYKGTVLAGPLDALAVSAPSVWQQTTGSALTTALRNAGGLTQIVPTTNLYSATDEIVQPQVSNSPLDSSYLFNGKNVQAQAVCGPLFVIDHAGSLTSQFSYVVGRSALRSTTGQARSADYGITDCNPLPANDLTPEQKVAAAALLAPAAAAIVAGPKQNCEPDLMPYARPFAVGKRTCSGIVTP

CCCCCCCC/C=C\CCCCCCCCOC(=O)COC(=O)/C=C(C)/C=C/C=C(C)/C=C/C1=C(C)CCCC1(C)C [Oleyl glycolyl retinoate, Oleyl Glycolyl Retinoate]
hydrolysis according to HPLC analysis (Novozym 435 (50 mg), stirred 1 h at ambient temperature): 5% | hydrolysis, control reaction without enzyme (no enzyme, ambient temperature): no hydrolysis
